pEC50: −log10 of the molar value.

The results in this text go back to patent US20100003246A1, “Novel heterocyclic compounds and uses therof” (priority 2008, published 2010).

The subject of one assay is Malme3M cells. Kind of assay: Cell Titer-Glo cell viability assay, Malme3M. It is filed as cell-based. To be noted: Homo sapiens, Malme-3M, 120 h; Melanoma cell line Malme3M; 5 days compound incubation; 1000 cells/well. On the procedure:
(§1) The Cell Titer-Glo® assay (Promega) was used to measure cell viability. Cells were plated into 96-well black walled tissue culture plates in complete growth media. The plates were then incubated under standard growth conditions of 37° C. and 5% CO2 until the cells had attached to the plates (3-6 hours), then compounds were added to the cells. Compounds were serially diluted in DMSO using 3-fold dilutions and then diluted in complete media before being added to the cells (final DMSO concentration on cells was 0.1-0.2%).
(§2) After compound incubation, the cell plates were equilibrated to room temperature, culture media was removed, and 200 uL of Cell Titer-Glo® reagent mix was added to each well (1:1 mixture of Cell Titer-Glo® reagent and complete growth media, equilibrated to room temperature). The plates were shaken for 5-10 minutes, then sealed and luminescence was measured (using Trilux plate reader, Perkin Elmer).
(§3) Analysis of data was done by subtracting the background luminescence value from each data point, then determining the percent inhibition of total growth (as determined by the values for DMSO-treated wells).
(§4) To determine the EC50 for each compound, the data were fit using the Levenburg Marquardt algorithm, represented in the XLfit software as y=A+((B−A)/(1+((C/x)̂D))), the four parameter dose response model 205, where A is the minimum Y value, B is the maximum Y value, C is the Log IC50 and D is the slope.

A further assay deals with T1, b-Raf(V600E) (Homo sapiens, UniProt P15056, V600E).
T1 construct: made in house
Kind of assay: Raf/Mek Amplified Luminescence Proximity Homogeneous Assay (Alpha Screen), b-Raf(V600E). In kind it is biochemical. The following applies: mutant b-Raf(V600E), read-out: mut-b-RAF (IC50 in uM). Summed up: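 IC50 derived by non-linear regression from AlphaScreen luminescence of phospho-MEK (anti-p-MEK antibody). Reaction: ~4 pM b-Raf(V600E), ~10 nM kinase-dead biotinylated Mek, 60 min compound pre-incubation, then 3 h with ATP at room temperature in pH 7.5 Tris/MgCl2/DTT buffer, quenched with EDTA.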

The next assay concerns G361 cells. Kind of assay: Cell Titer-Glo cell viability assay, G361. It is filed as cell-based. To be noted: Homo sapiens, G-361, 96 h; Melanoma cell line G361; 4 days compound incubation; 1000 cells/well. The method, then:
as §1, §2, §3, §4

In a further assay the test system is A375 cells. Kind of assay: Cell Titer-Glo cell viability assay, A375. In kind it is cell-based. To be noted: Homo sapiens, A-375, 72 h; Melanoma cell line A375; 3 days compound incubation; 1000 cells/well. On the procedure: as §1, §2, §3, §4
The subject of the next assay is SU86.86 cells. Kind of assay: Cell Titer-Glo cell viability assay, SU86.86. It is filed as cell-based. To be noted: Homo sapiens, SU.86.86, 120 h; Pancreatic cell line SU86.86; 5 days compound incubation; 1000 cells/well. The method, then:
as §1, §2, §3, §4

Another assay has as its system Capan1 cells. The assay is described as follows: Cell Titer-Glo cell viability assay, Capan1. It is filed as cell-based. The following applies: Homo sapiens, CAPAN-1, 120 h; Pancreatic cell line Capan1; 5 days compound incubation; 2000 cells/well. The method, then:
as §1, §2, §3, §4

T1 sequence (P15056 whole entry V600E): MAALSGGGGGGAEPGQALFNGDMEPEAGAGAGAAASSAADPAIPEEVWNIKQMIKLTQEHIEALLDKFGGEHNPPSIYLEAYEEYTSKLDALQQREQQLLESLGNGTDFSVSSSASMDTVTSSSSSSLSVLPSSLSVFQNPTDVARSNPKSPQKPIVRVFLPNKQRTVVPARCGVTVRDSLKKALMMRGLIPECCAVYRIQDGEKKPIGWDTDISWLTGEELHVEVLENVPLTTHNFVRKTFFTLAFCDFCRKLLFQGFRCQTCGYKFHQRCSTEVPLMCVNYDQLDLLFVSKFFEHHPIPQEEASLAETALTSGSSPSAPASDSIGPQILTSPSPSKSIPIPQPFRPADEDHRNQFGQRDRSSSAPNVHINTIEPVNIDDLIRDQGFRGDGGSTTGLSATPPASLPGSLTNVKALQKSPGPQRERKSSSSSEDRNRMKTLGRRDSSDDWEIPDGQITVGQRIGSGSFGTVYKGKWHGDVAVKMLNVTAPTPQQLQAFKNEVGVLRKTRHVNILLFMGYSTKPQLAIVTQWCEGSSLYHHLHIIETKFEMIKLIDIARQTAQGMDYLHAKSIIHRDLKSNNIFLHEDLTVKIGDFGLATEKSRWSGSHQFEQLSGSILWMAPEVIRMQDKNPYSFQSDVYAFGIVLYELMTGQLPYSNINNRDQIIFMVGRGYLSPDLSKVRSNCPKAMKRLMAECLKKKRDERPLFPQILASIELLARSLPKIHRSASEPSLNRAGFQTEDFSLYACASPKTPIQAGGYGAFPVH

With `COc1cc(-c2nc(-c3ccc(F)cc3)[nH]c2-c2ccncc2)cnc1N` [Compound 66, 5-(2-(4-fluorophenyl)-5-(pyridin-4-yl)-1H-imidazol-4-yl)-3-methoxypyridin-2-amine], the negative logarithm of the EC50 (pEC50) in the assay with Malme3M cells is 6.09; with G361 cells, 5.99; in the assay with A375 cells, 6.21. For the same compound, the half-inhibitory concentration (IC50) at b-Raf(V600E) was 0.6 nM.
With `COc1cc(-c2[nH]c(-c3ccc(F)cc3F)nc2-c2ccncc2)cnc1N` [Compound 106, 5-(2-(2,4-difluorophenyl)-4-(pyridin-4-yl)-1H-imidazol-5-yl)-3-methoxypyridin-2-amine], the negative-log EC50 (pEC50) in the assay with SU86.86 cells was 6.93; with Capan1 cells, 6.17. At b-Raf(V600E), the half-maximal inhibitory concentration (IC50) turned out to be 1 nM.
As for `COCC(=O)NCCNc1nccc(-c2[nH]c(-c3ccc(C(F)(F)F)cc3)nc2-c2cnc(N)c(OC)c2)n1` [Compound 85, N-(2-(4-(4-(6-amino-5-methoxypyridin-3-yl)-2-(4-(trifluoromethyl)phenyl)-1H-imidazol-5-yl)pyrimidin-2-ylamino)ethyl)-2-methoxyacetamide], the pEC50 in the assay with SU86.86 cells was 6.95; in the assay on Capan1 cells, 6.79. The IC50 at b-Raf(V600E) turned out to be 0.2 nM.
Turning to `CCOC(=O)N[C@@H](C)CNc1nccc(-c2[nH]c(C(C)(C)C)nc2-c2cnc(N)c(OC)n2)n1` [Compound 236, (S)-ethyl 1-(4-(4-(5-amino-6-methoxypyrazin-2-yl)-2-tert-butyl-1H-imidazol-5-yl)pyrimidin-2-ylamino)propan-2-ylcarbamate], the IC50 at b-Raf(V600E) is 0.1 nM.
As for `COc1cc(-c2[nH]c(-c3ccc(O)cc3)nc2-c2ccncc2)cnc1N` [Compound 71, 4-(5-(6-amino-5-methoxypyridin-3-yl)-4-(pyridin-4-yl)-1H-imidazol-2-yl)phenol], the IC50 at b-Raf(V600E) stood at 0.3 nM.
For `COc1nc(-c2oc(-c3ccccc3)nc2-c2ccncc2)cnc1N` [Compound 90, 3-methoxy-5-(2-phenyl-4-(pyridin-4-yl)oxazol-5-yl)pyrazin-2-amine], the concentration for half-maximal inhibition (IC50) on b-Raf(V600E) is 113 nM.
Turning to `COc1cc(-c2[nH]c(-c3cccc(C(N)=O)c3)nc2-c2ccncc2)cnc1N` [Compound 122, 3-(5-(6-amino-5-methoxypyridin-3-yl)-4-(pyridin-4-yl)-1H-imidazol-2-yl)benzamide], the 50% inhibitory concentration (IC50) on b-Raf(V600E) was 2.1 nM.
Regarding `COc1cc(Nc2nccc(-c3[nH]c(C(C)(C)C)nc3-c3cnc(N)c(OC)n3)n2)ccn1` [Example 9, 4-(4-(5-amino-6-methoxypyrazin-2-yl)-2-tert-butyl-1H-imidazol-5-yl)-N-(2-methoxypyridin-4-yl)pyrimidin-2-amine], the 50% inhibitory concentration (IC50) at b-Raf(V600E) came to 0.1 nM.
`c1ccc(-c2nc(-c3ccncc3)c(-c3ccc4cc[nH]c4c3)[nH]2)cc1` [Compound 33, 6-(2-phenyl-4-(pyridin-4-yl)-1H-imidazol-5-yl)-1H-indole]: the 50% inhibitory concentration (IC50) on b-Raf(V600E) is 54 nM.
On the same count and under the same terms, as for `COc1cc(-c2nc(C3=CCCCC3)[nH]c2-c2ccncc2)cnc1N` [Compound 113, 5-(2-cyclohexenyl-5-(pyridin-4-yl)-1H-imidazol-4-yl)-3-methoxypyridin-2-amine], the figure is 2.6 nM.
On the same count and under the same terms, in the case of `COc1cc(-c2nccc(-c3[nH]c(C(C)(C)C)nc3-c3cnc(N)c(OC)c3)n2)cnc1N` [Compound 186, 5-(4-(4-(6-amino-5-methoxypyridin-3-yl)-2-tert-butyl-1H-imidazol-5-yl)pyrimidin-2-yl)-3-methoxypyridin-2-amine] it was 29.9 nM; in that of `CCCNc1nccc(-c2nc(-c3ccc(F)cc3)[nH]c2-c2cnc(N)c(OC)c2)n1` [Compound 175, 4-(5-(6-amino-5-methoxypyridin-3-yl)-2-(4-fluorophenyl)-1H-imidazol-4-yl)-N-propylpyrimidin-2-amine], 1.2 nM.
On to `COc1nc(-c2nc(C(C)(C)C)[nH]c2-c2ccnc(NC[C@H](C)NC(=O)[C@H](C)OC)n2)c(C)nc1N` [Compound 254, (S)-N-((S)-1-(4-(4-(5-amino-6-methoxy-3-methylpyrazin-2-yl)-2-tert-butyl-1H-imidazol-5-yl)pyrimidin-2-ylamino)propan-2-yl)-2-methoxypropanamide], for which the half-maximal inhibitory concentration (IC50) at b-Raf(V600E) came out at 3.8 nM.
As for `COc1cc(-c2nc(C3CCCCC3)[nH]c2-c2ccncc2)cnc1N` [Compound 118, 5-(2-cyclohexyl-5-(pyridin-4-yl)-1H-imidazol-4-yl)-3-methoxypyridin-2-amine], the half-maximal inhibitory concentration (IC50) on b-Raf(V600E) is 2 nM.
The same measure, in the same setting: as for `COc1cc(-c2[nH]c(-c3ccc(F)cc3)nc2-c2cn[nH]c2)cnc1N` [Compound 96, 5-(2-(4-fluorophenyl)-4-(1H-pyrazol-4-yl)-1H-imidazol-5-yl)-3-methoxypyridin-2-amine], the figure is 32.1 nM; as for `COc1cc(-c2[nH]c(-c3ccccc3)nc2-c2ccnc(NCCNS(=O)(=O)C3CC3)n2)cnc1N` [Compound 88, N-(2-(4-(5-(6-amino-5-methoxypyridin-3-yl)-2-phenyl-1H-imidazol-4-yl)pyrimidin-2-ylamino)ethyl)cyclopro-panesulfonamide], 0.1 nM; as for `N#Cc1cc(-c2[nH]c(-c3ccccc3)nc2-c2ccncc2)cnc1N` [Compound 87, 2-amino-5-(2-phenyl-4-(pyridin-4-yl)-1H-imidazol-5-yl)nicotinonitrile], 391 nM.
For the compound `Fc1ccc(-c2nc(-c3ccncc3)c(-c3cnc4[nH]ccc4c3)[nH]2)cc1` [Compound 144, 5-(2-(4-fluorophenyl)-4-(pyridin-4-yl)-1H-imidazol-5-yl)-1H-pyrrolo[2,3-b]pyridine], on b-Raf(V600E), the IC50 turned out to be 3 nM.
The same measure, in the same setting: as for `COC(=O)N[C@@H](C)CNc1nccc(-c2[nH]c(C(C)(C)C)nc2-c2cnc(N)c(OC(F)F)c2)n1` [Compound 265, (S)-methyl 1-(4-(4-(6-amino-5-(difluoromethoxy)pyridin-3-yl)-2-tert-butyl-1H-imidazol-5-yl)pyrimidin-2-ylamino)propan-2-ylcarbamate], the figure is 0.01 nM; as for `COc1cc(-c2[nH]c(-c3ccc(F)c(F)c3)nc2-c2ccncc2)cnc1N` [Compound 109, 5-(2-(3,4-difluorophenyl)-4-(pyridin-4-yl)-1H-imidazol-5-yl)-3-methoxypyridin-2-amine], 1.2 nM.
Same read-out and setting: as for `c1ccc(-c2nc(-c3ccncc3)c(-c3cnc4[nH]cnc4c3)[nH]2)cc1` [Compound 53, 6-(2-phenyl-4-(pyridin-4-yl)-1H-imidazol-5-yl)-3H-imidazo[4,5-b]pyridine], the figure is 290 nM.
On to `COc1cc(-c2nc(-c3ccccc3)[nH]c2-c2ccnc(NCCO)n2)cnc1N` [Example 3, 2-(4-(4-(6-amino-5-methoxypyridin-3-yl)-2-phenyl-1H-imidazol-5-yl)pyrimidin-2-ylamino)ethanol], for which, at b-Raf(V600E), the IC50 is 1.3 nM.
For the compound `COc1ncc(-c2[nH]c(-c3ccccc3)nc2-c2ccncc2)cc1N` [Compound 42, 2-methoxy-5-(2-phenyl-4-(pyridin-4-yl)-1H-imidazol-5-yl)pyridin-3-amine], the IC50 on b-Raf(V600E) turned out to be 349 nM.
With `Fc1ccc(-c2nc(-c3ccncc3)c(-c3ccnc4[nH]ccc34)[nH]2)cc1` [Compound 150, 4-(2-(4-fluorophenyl)-4-(pyridin-4-yl)-1H-imidazol-5-yl)-1H-pyrrolo[2,3-b]pyridine], the half-inhibitory concentration (IC50) at b-Raf(V600E) came out at 775 nM.
For `COC(=O)N[C@@H](C)CNc1nccc(-c2nc(C(C)(C)C)[nH]c2-c2ccc3[nH]ccc3c2)n1` [Compound 240, (S)-methyl 1-(4-(2-tert-butyl-5-(1H-indol-5-yl)-1H-imidazol-4-yl)pyrimidin-2-ylamino)propan-2-ylcarbamate], on b-Raf(V600E), the concentration for half-maximal inhibition (IC50) is 13.8 nM.
As for `COc1cc(-c2nc(C(C)(C)C)[nH]c2-c2ccnc(N[C@@H]3CCN(S(C)(=O)=O)C3)n2)cnc1N` [Compound 203, (R)-4-(4-(6-amino-5-methoxypyridin-3-yl)-2-tert-butyl-1H-imidazol-5-yl)-N-(1-(methylsulfonyl)pyrrolidin-3-yl)pyrimidin-2-amine], the IC50 at b-Raf(V600E) was 3.5 nM.
As for `COc1cc(-c2nc(-c3ccc(F)cc3)[nH]c2-c2ccnc(NC[C@H](C)NS(C)(=O)=O)n2)cnc1N` [Compound 195, (S)-N-(1-(4-(4-(6-amino-5-methoxypyridin-3-yl)-2-(4-fluorophenyl)-1H-imidazol-5-yl)pyrimidin-2-ylamino)propan-2-yl)methanesulfonamide], on b-Raf(V600E), the half-inhibitory concentration (IC50) is 0.1 nM.
